Experimental data as given in the NIST ThermoML archive (doi:10.1021/je301132p).

Assay: mn = molality of the nth substance listed, in mol/kg
Conditions: Liquid, Vibrating tube method

[Cl-].[Cl-].[Sr+2] [strontium chloride] + O
mass density [kg/m3]
Conditions	298.11 K	323.13 K	348.12 K	373.12 K	398.08 K	423.07 K	448.03 K	473.02 K
1100 kPa, m1 = 1.022	1130.15	1118.47	1104.6	1088.34	1069.78	1049.35	1026.97	–
1100 kPa, m1 = 2.024	1247.6	1234.1	1219.34	1202.92	1184.72	1165.03	1143.84	–
1100 kPa, m1 = 3.031	1354.92	1340.16	1324.81	1308.43	1290.36	1271.02	1250.51	–
10100 kPa, m1 = 1.022	1133.6	1121.92	1108.06	1092.02	1073.81	1053.57	1031.7	1007.66
10100 kPa, m1 = 2.024	1250.68	1237.28	1222.48	1206.28	1188.28	1168.83	1147.95	1125.38
10100 kPa, m1 = 3.031	1357.74	1343.03	1327.78	1311.58	1293.65	1274.46	1254.24	1232.68
20100 kPa, m1 = 1.022	1137.52	1125.75	1111.92	1095.98	1078.08	1058.3	1037.05	1013.5
20100 kPa, m1 = 2.024	1254.27	1240.69	1226.06	1209.96	1192.23	1173.04	1152.74	1130.5
20100 kPa, m1 = 3.031	1360.96	1346.27	1331.14	1315.04	1297.24	1278.29	1258.62	1237.28
30100 kPa, m1 = 1.022	1141.28	1129.44	1115.71	1100.03	1082.31	1062.95	1042	1019.02
30100 kPa, m1 = 2.024	1257.65	1244.1	1229.57	1213.53	1196.08	1177.32	1157.21	1135.33
30100 kPa, m1 = 3.031	1364.07	1349.35	1334.39	1318.4	1300.87	1282.22	1262.72	1241.64
40100 kPa, m1 = 1.022	1145.04	1133.12	1119.42	1103.81	1086.33	1067.24	1046.83	1024.58
40100 kPa, m1 = 2.024	1260.99	1247.56	1233.02	1217.2	1199.73	1181.23	1161.52	1140.28
40100 kPa, m1 = 3.031	1367.19	1352.55	1337.62	1321.75	1304.29	1285.9	1266.77	1246.19
50100 kPa, m1 = 1.022	1148.76	1136.68	1123.04	1107.65	1090.29	1071.7	1051.49	1029.72
50100 kPa, m1 = 2.024	1264.44	1250.9	1236.41	1220.6	1203.4	1185.23	1165.8	1144.86
50100 kPa, m1 = 3.031	1370.34	1355.63	1340.81	1324.88	1307.65	1289.64	1270.62	1250.44
60100 kPa, m1 = 1.022	1152.26	1140.25	1126.67	1111.38	1094.27	1075.85	1056.12	1034.76
60100 kPa, m1 = 2.024	1267.55	1254.09	1239.66	1224.07	1207.02	1189.05	1169.91	1149.32
60100 kPa, m1 = 3.031	1373.16	1358.71	1343.89	1328.14	1311.1	1293.25	1274.47	1254.53
68600 kPa, m1 = 1.022	1155.3	1143.18	1129.67	1114.46	1097.55	1079.3	1059.85	1038.86
68600 kPa, m1 = 2.024	1270.33	1256.76	1242.52	1226.94	1210.03	1192.19	1173.33	1153.07
68600 kPa, m1 = 3.031	1375.7	1361.18	1346.54	1330.91	1313.86	1296.08	1277.59	1257.93
